Assay results reported in ChEMBL document CHEMBL1152627, “Structure-activity relationship of antiparasitic and cytotoxic indoloquinoline alkaloids, and their tricyclic and bicyclic analogues” (Bioorg Med Chem, 2009).
Structures can show the parent of a compound that is named as a salt. The source made the active and inactive calls. The calls are words filed in the database; no cut-off is given here.

Key:
[1] = system: Trypanosoma brucei rhodesiense; test: Antitrypanosomal activity against Trypanosoma brucei rhodesiense; assay type: functional, organism-based
Leishmania donovani = test: Antileishmanial activity against Leishmania donovani axenic amastigotes; assay type: functional, organism-based
Trypanosoma cruzi = test: Antitrypanosomal activity against Trypanosoma cruzi; assay type: functional, organism-based
Plasmodium falciparum [2] = test: Antimalarial activity against chloroquine and pyrimethamine-resistant Plasmodium falciparum K1 by [3H]hypoxanthine incorporation assay; assay type: functional, organism-based
[3] = (§1) Toxicity against rat L6 cells; assay type: cell-based; conditions: rat, L6 cells
L6 = test: as §1; assay type: cell-based; conditions: l6
[4] = Inhibition of beta-hematin formation by BHIA assay; assay type: functional
Plasmodium falciparum [5] = test: Antimalarial activity against chloroquine-sensitive Plasmodium falciparum FCR3/Gambia; assay type: functional; conditions: FCR-3/Gambia
FM3A = test: Cytotoxicity in mouse FM3A cells; assay type: cell-based
[6] = Selectivity index, ratio of IC50 for mice (Mus musculus) FM3A cells to IC50 for chloroquine-sensitive Plasmodium falciparum FCR3/Gambia; assay type: toxicity, cell-based; conditions: read-out: Ratio IC50
Nucleic Acid = test: Displacement of methyl green dye from DNA; assay type: nucleic-acid assay
Plasmodium falciparum [7] = test: Antimalarial activity against chloroquine-sensitive Plasmodium falciparum D6; assay type: functional, organism-based
THP-1 = test: Cytotoxicity in human THP1 cells; assay type: cell-based
Plasmodium falciparum [8] = test: Antimalarial activity against chloroquine-resistant Plasmodium falciparum W2; assay type: functional, organism-based
Plasmodium falciparum [9] = test: Antimalarial activity against Plasmodium falciparum isolates; assay type: functional, organism-based
Plasmodium falciparum [10] = test: Antimalarial activity against chloroquine and pyrimethamine-resistant Plasmodium falciparum K1; assay type: functional, organism-based
Plasmodium berghei [11] = test: Antimalarial activity against Plasmodium berghei ANKA infected in Swiss mice (Mus musculus) assessed as parasitaemia level at 10 mg/kg, intraperitoneally dosed for 5 consecutive days measured 4 days post infection; conditions: route intraperitoneal
Plasmodium berghei [12] = test: Antimalarial activity against Plasmodium berghei ANKA infected in Swiss mice (Mus musculus) assessed as suppression of parasitaemia at 10 mg/kg, intraperitoneally dosed for 5 consecutive days measured 4 days post infection relative to untreated control; conditions: route intraperitoneal
Plasmodium berghei [13] = test: Antimalarial activity against Plasmodium berghei ANKA infected in Swiss mice (Mus musculus) assessed as mice (Mus musculus) survival at 10 mg/kg, intraperitoneally dosed for 5 consecutive days measured 7 days post infection; conditions: ip, 168 h

Row | SMILES | IC50 ([1]; Trypanosoma brucei) [µM] | IC50 (Leishmania donovani; Leishmania donovani) [µM] | IC50 (Trypanosoma cruzi; Trypanosoma cruzi) [µM] | IC50 (Plasmodium falciparum [2]; Plasmodium falciparum, K1) [µM] | IC50 [3] [µM] | other results
1 | Cn1cc2ccccc2c2ccnc1-2 | 8.4 | 97.5 | 40.9 | 7.8 | 153 | –
2 | Cn1ccc2nc3ccccc3c-2c1 [listing 1 of 2 here] | 109 | – | – | – | – | IC50 (Leishmania donovani): > 95 µM; IC50 (Trypanosoma cruzi): > 95 µM; IC50 (Plasmodium falciparum [2]): 2.4 µM; IC50 (L6): > 290 µM
3 | c1ccc2c(c1)cnc1[nH]ccc12 | 43.5 | 30.3 | 69.6 | 23.2 | 119 | –
4 | C[n+]1ccc2c(c1)[nH]c1ccccc12 [listing 1 of 2 here] | – | – | – | – | – | inhibition [4]: inactive
5 | COc1c[n+](C)c(C)c2[nH]c3ccccc3c12 | – | – | – | – | – | IC50 (Plasmodium falciparum [5]): < 1 µM; IC50 (FM3A): > 10 µM; selectivity ratio [6]: > 32
6 | Cn1cc2ccccc2c2c3ccccc3nc1-2.I | 2.59 | – | 11.9 | – | 1.5 | IC50 [4]: 3.32 molar equivalents; IC50 (Leishmania donovani): 6.6 µM; IC50 (Nucleic Acid): 87 µM; IC50 (Plasmodium falciparum [2]): 0.032 µM
7 | Cn1ccc2nc3ccccc3c-2c1 [listing 2 of 2 here] | – | > 160 | > 160 | 2.1 | 390 | IC50 [1]: 138 µM
8 | CC1NCCc2c1[nH]c1ccccc21 (stereo not drawn) [TETRAHYDROHARMAN] | – | – | – | – | – | IC50 (Plasmodium falciparum [7]): 20.1 µM; IC50 (THP-1): 403 µM; IC50 (Plasmodium falciparum [8]): 7.5 µM
9 | C=Cc1ncc(OC)c2c1[nH]c1ccccc12 | – | – | – | – | – | IC50 (Plasmodium falciparum [9]): 10.7 µM
10 | C[n+]1ccc2c(c1)[nH]c1ccccc12 [NORMELINONINE F HYDROCHLORIDE] | – | – | – | – | – | IC50 (Plasmodium falciparum [10]): 13.6 µM
11 | CCCCCCCCCCCCCCCCOP(=O)([O-])OCC[N+](C)(C)C [MILTEFOSINE] | – | – | – | – | 58.4 | –
12 | Nc1nc(N)nc(Nc2ccc([As]3SCC(CO)S3)cc2)n1 (stereo not drawn) [MELARSOPROL] | – | – | – | – | 8.6 | –
13 | Cn1c2nc3ccccc3c-2cc2ccccc21 [NEOCRYPTOLEPINE HYDROCHLORIDE] | 2.23 | 49.5 | 2.01 | 2.61 | – | inhibition [4]: Active; inhibition (Nucleic Acid): Active
14 | c1ccc2c(c1)ncc1[nH]ccc12 | 25.5 | 183 | 81 | 6.4 | 173 | –
15 | Cn1cc2ccccc2c2c3ccccc3nc1-2 | – | 4.8 | – | 0.04 | – | IC50 [4]: 2.76 molar equivalents; IC50 [1]: 3.33 µM; IC50 (Nucleic Acid): 81 µM; IC50 (Trypanosoma cruzi): 20.7 µM; IC50 (L6): 1.3 µM
16 | CCc1c2[nH]c3ccccc3c2c(OC)c[n+]1C | – | – | – | – | – | IC50 (Plasmodium falciparum [5]): < 1 µM; IC50 (FM3A): > 10 µM; selectivity ratio [6]: > 32
17 | Cn1cc2nccc-2c2ccccc21 | 31.5 | 169 | 76.8 | 3.2 | 160 | –
18 | Cn1cccc2c3ccccc3nc1-2 [listing 1 of 2 here] | – | – | 64.5 | 13 | 236 | IC50 [1]: 34 µM; IC50 (Leishmania donovani): > 95 µM

Row | SMILES | IC50 ([1]; Trypanosoma brucei) [µM] | IC50 (Leishmania donovani; Leishmania donovani) [µM] | IC50 (Trypanosoma cruzi; Trypanosoma cruzi) [µM] | IC50 (Plasmodium falciparum [2]; Plasmodium falciparum, K1) [µM] | IC50 [3] [µM] | other results
19 | O=C(Cn1ccnc1[N+](=O)[O-])NCc1ccccc1 [BENZNIDAZOLE] | – | – | 1.25 | – | > 90 | –
20 | Cc1c2[nH]c3ccccc3c2cc[n+]1C | – | – | – | – | – | IC50 (Plasmodium falciparum [10]): 5.1 µM; selectivity ratio [6]: 18
21 | Cn1cc2ccccc2c2nc3ccccc3c1-2 [listing 1 of 2 here] | – | 15.5 | – | 0.64 | 1.48 | IC50 [1]: 0.72 µM; IC50 (Trypanosoma cruzi): 1.66 µM
22 | C[n+]1ccc2c(c1)[nH]c1ccccc12 [listing 2 of 2 here] | 155 | 52.3 | > 95 | 0.34 | > 290 | IC50 (Nucleic Acid): > 2800 µM
23 | CCN(CC)CCCC(C)Nc1ccnc2cc(Cl)ccc12 (stereo not drawn) [CHLOROQUINE] | – | – | – | – | 43.1 | Activity (Plasmodium berghei [11]): 5.24%; Activity (Plasmodium berghei [12]): 86.3%; survival at 10 mg/kg (Plasmodium berghei [13]): 100%
24 | C=Cc1c2[nH]c3ccccc3c2c(OC)c[n+]1CC | – | – | – | – | – | IC50 (Plasmodium falciparum [5]): < 1 µM; IC50 (FM3A): > 10 µM; selectivity ratio [6]: > 32
25 | COc1ccc2c3cc[n+](C)c(C)c3n(C)c2c1 | – | – | – | – | – | IC50 (Plasmodium falciparum [5]): < 1 µM; IC50 (FM3A): > 10 µM; selectivity ratio [6]: > 32
26 | Cc1nccc2c1[nH]c1ccccc12 [HARMAN] | – | – | – | – | – | IC50 (Plasmodium falciparum [7]): 12.1 µM; IC50 (THP-1): 121 µM; IC50 (Plasmodium falciparum [8]): 7.1 µM
27 | C=Cc1ncc(OC)c2c1[nH]c1ccc(O)cc12 | – | – | – | – | – | IC50 (Plasmodium falciparum [9]): 13.7 µM
28 | Cn1cc2ccccc2c2nc3ccccc3c1-2 [listing 2 of 2 here] | 0.55 | – | 1.53 | – | – | IC50 (Leishmania donovani): 16.8 µM; IC50 (Plasmodium falciparum [2]): 0.57 µM; IC50 (L6): 2.2 µM
29 | Cn1cccc2nc3ccccc3c1-2 [listing 1 of 2 here] | 86.1 | – | – | 0.38 | 132 | IC50 (Leishmania donovani): > 95 µM; IC50 (Trypanosoma cruzi): > 95 µM
30 | C[n+]1cc2[nH]c3ccccc3c2c2ccccc21 [ISONEOCRYPTOLEPINE HYDROCHLORIDE] | 6.48 | 75.4 | 21 | 0.23 | – | inhibition [4]: Active; inhibition (Nucleic Acid): Active
31 | Cn1cccc2c3ccccc3nc1-2 [listing 2 of 2 here] | 21.3 | > 160 | – | – | – | IC50 (Trypanosoma cruzi): 89.2 µM; IC50 (Plasmodium falciparum [2]): 14.7 µM; IC50 (L6): 300 µM
32 | Cn1cc2c3ccccc3nc-2c2ccccc21 [ISOCRYPTOLEPINE HYDROCHLORIDE] | 0.52 | 39.1 | 1.27 | 0.78 | – | inhibition [4]: Active; inhibition (Nucleic Acid): Active
33 | Cn1ccc2c3ccccc3nc-2c1 | 93.7 | 92.1 | > 160 | 0.45 | > 490 | inhibition [4]: inactive; IC50 (Nucleic Acid): > 3800 µM
34 | Cn1cccc2nc3ccccc3c1-2 [listing 2 of 2 here] | – | > 160 | > 160 | – | – | IC50 [1]: 138 µM; IC50 (Plasmodium falciparum [2]): 0.48 µM; IC50 (L6): 179 µM
35 | C[n+]1c2ccccc2cc2[n-]c3ccccc3c21 [CRYPTOLEPINE HYDROCHLORIDE] | 0.6 | 2.68 | 0.22 | 0.12 | – | inhibition [4]: Active; inhibition (Nucleic Acid): Active
